In patent publication US6875759B1, “Substituted guanidines and the use thereof” (Kadmus Pharmaceuticals, priority 1999, dated 2005):

What was measured:
[1] = system: caspase-3 (CPP-32); test: Caspase-3 activation, western blot of cytosolic fractions; assay type: cell-based, human; settings: breast cancer cells (HS578-T); 25 μM; 0-240 minutes
Experimental: FIG. 6 is an immunoblot illustrating the activation of caspase 3 in human breast cancer cells (HS578-T) exposed to 25 μM of the compound of Example 8. Cells were exposed to the compound for 0, 30, 60, 90, 150, and 240 minutes of treatment with peak activity occurring 90 minutes after drug addition.
When cells are induced to undergo apoptosis the cell death effector, caspase-3 (CPP-32), is cleaved and activated by proteolytic enzymes.

[2] = system: human breast (HS578-T) cancer cells; test: Mitochondrial membrane depolarization, JC-1 flow cytometry, breast cancer cells; assay type: cell-based; settings: 25 μM, five hours following drug exposure
Experimental: FIGS. 5A-5C illustrate the effects of the compound of Example 8 on human breast cancer cells (HS578-T). Mitochondrial membrane depolarization was assessed by flow cytometry as measured by the fluorescence of cation, JC-1. Cells were exposed to 25 μM of the compound and fluorescence measured at: 0 hours (FIG. 5A), 2 hours (FIG. 5B) and 5 hours (FIG. 5C).
Mitochondrial membrane depolarization is an early event in apoptosis. […] These early changes in mitochondrial function can be detected using a fluorescent cation, JC-1, that emits a red color when sequestered in the mitochondria of healthy cells, or a green color when localized to the cytoplasm.
Human breast (HS578-T) and prostate (DU145) cancer cells were exposed to 25 μM of the compound of Example 8 for varying lengths of times. Both cell lines lost the capacity to sequester JC-1 in the mitochondrial compartment as indicated by a time-dependent increase in green vs. red fluorescence (FIGS. 5A-5F). In an attempt to better quantitate the results of these experiments, the scans were divided into quadrants. At time 0, greater than 90% of the dye was localized in the mitochondria in both breast and prostate cancer cells. By five hours following drug exposure, the mitochondria from the prostate and breast cells contained only 33% and 22% of the dye, respectively.

[3] = system: HS578T breast cancer cells; test: DNA fragmentation, TUNEL assay by flow cytometry; assay type: cell-based, human; settings: 12.5 or 25 μM for 24 hours
Experimental: FIGS. 4A-4C illustrate the effects of compound of Example 8 on HS578-T breast carcinoma cells. Cells were exposed to the compound at zero μM (FIG. 4A), 12.5 μM (FIG. 4B) or 25 μM (FIG. 4C) for 24 hours, and the degree of DNA fragmentation measured by flow cytometry using the TUNEL assay.
The TUNEL assay examines DNA fragmentation using flow cytometry to detect DNA that is labeled with fluorescein dUTP compared to the total nuclear DNA content of the cell as measured using propidium iodide. Human HS578T breast cancer cells were treated with either 12.5 or 25 μM of the compound of Example 8 for 24 hours. As cells undergo apoptosis, DNA fragmentation occurs in a relatively intact nucleus, giving rise to a higher fluorescent intensity (x-axis) with stable staining by propidium iodide (y-axis).

[4] = system: human prostate (DU14) cancer cells; assay type: in vivo; settings: daily i.p. for five days
Excerpt: FIG. 2A is a bar graph which depicts the effect of the compound of Example 8 (1-[N,N′-di-p-tolyl)amidino]-4-(trans-1′-cinnamyl)piperizine) on human prostate cancer in BDF/1 mice using the sub-renal capsule assay.
Human cancer cells can be grown in the sub-renal capsule of immuno-competent mice where, for a limited period of time, they escape detection by the mouse's immune system. Thus, the sub-renal capsule assay provides a convenient system to study the effect of drugs on the growth of tumor cells in vivo (Bogden, A. E., et al., Exp. Cell Biol. 47:281 (1979)). Briefly, female BDF mice weighing 18-20g were anesthetized, the left kidney exteriorized and a small nick was made in the kidney capsule for implantation of tumor cells. Approximately 1×10^6 human prostate (DU14) or pancreatic cancer (HS766T) cells were prepared as a fibrinogen-jelled pellet (Stratton, J. A., et al., Gynecol. Oncol. 19:336 (1984); Stratton, J. A., et al., Gynecol. Oncol. 30:416 (1988)) and implanted beneath the renal capsule. […] One day after the final injection, the animals were killed and the tumor volume was measured. Tumor growth was determined by subtracting the initial size of the implant from the size of the implant size following treatment (Stratton, J. A., et al., Gynecol Oncol. 19:336 (1984); Stratton, J. A., et al., Gynecol. Oncol. 30:416 (1988)).

Cc1ccc(N=C(Nc2ccc(C)cc2)N2CCN(C/C=C/c3ccccc3)CC2)cc1 [Example 8, 1-[(N,N′-Di-p-tolyl)amidino]-(trans-1′-cinnamyl)piperizine]
processed (activated) caspase-3 (in words) [1]: time-dependent increase in processed caspase-3
JC-1 dye contained in mitochondria [2]: 22%
DNA fragmentation (TUNEL) [3]: pattern of DNA fragmentation characteristic of apoptosis
inhibition of tumor growth ([4]; prostate cancer cell line in mouse sub-renal capsule): greater than 95%
effect on tumor growth (in words) ([4]; prostate implant, FIG. 2A): dose-dependent and highly significant inhibition of tumor growth
